Assay results from paper PMC9057582, “HIF inhibitor 32-134D eradicates murine hepatocellular carcinoma in combination with anti-PD1 therapy” (The Journal of Clinical Investigation, 2022).
Read-outs that look alike come from different tables or passages of the source. Where a SMILES comes first, the peptide text is derived from it. The star is where a group is joined. Cbz = O=C(OCc1ccccc1)*

Tests used:
[1] = tested on: HIF-1α and HIF-2α protein; experiment: Immunoblot of nuclear extracts of Hep3B cells; format: cell-based, human; settings: 5 μM MG132 during last 8 hours, 5 μM 32-134D
Protocol: (§1) Figure 1 Identification of HIF inhibitors. (A) Hep3B-c1 cells were stably transfected with firefly luciferase (FLuc) reporter p2.1, which contains a hypoxia-response element (HRE), and Renilla luciferase (RLuc) reporter pSVR. (B) Hep3B-c1 cells were incubated with vehicle (Veh; 0.1% DMSO; blue bars) or 10 μM 32-134D (red bars) at 20% O2 (n = 6) or 1% O2 (n = 12) for 24 hours. Cell lysates were assayed for Fluc/Rluc activity (mean ± SEM); *P < 0.05 versus vehicle (χ^2 test). (C) Chemical structures and IC50 values for HIF inhibitors. (D and E) Hep3B cells were exposed to 20% O2 with vehicle, or 1% O2 with vehicle (blue bar), 32-134D (red bars), 33-063 (green bars), or PT2385 (brown bars) for 24 hours and CA9 (D) and EPO (E) mRNAs were quantified by RT-qPCR. […] (F) Hep3B cells were exposed to 20% or 1% O2 in the presence of vehicle or 1% O2 in the presence of 5 μM 32-134D (n = 3 each) for 24 hours. RNA sequencing identified genes with hypoxia-induced expression (blue circle) and genes that were inhibited by 32-134D (orange circle), based on FDR < 0.05 and fold change > 1.5. (G) Hep3B cells were exposed to 20% or 1% O2 for 24 hours in the presence of vehicle or 5 μM 32-134D, nuclear extracts were prepared, and immunoblot assays were performed. […]

[2] = tested on: HIF transcriptional activity; experiment: HIF-dependent luciferase reporter assay (FLuc/RLuc ratio) in Hep3B-c1 cells; format: cell-based; settings: Homo sapiens, 1% O2, 24 hours, read-out: IC50, inhibition of HIF-dependent reporter gene expression
Excerpt: The NCI CellMiner database contains expression data for over 25,000 mRNAs in 60 human cancer cell lines that have been exposed to more than 20,000 chemical compounds ([49]). We searched CellMiner for a compound that induced changes in gene expression that were highly correlated with those induced by acriflavine, but which was structurally unrelated to acriflavine. Compounds that satisfied the above criteria were identified and subsequently analyzed in Hep3B-c1 cells ([50]), which are stably transfected with HIF-dependent reporter plasmid p2.1, in which firefly luciferase (FLuc) coding sequences are located downstream from a hypoxia-response element (HRE) and a basal SV40 promoter; and control reporter pSVR, in which Renilla luciferase (RLuc) coding sequences are downstream of the basal SV40 promoter only (Figure 1A). The FLuc/RLuc ratio in cells exposed to 1% O2 for 24 hours is a specific measure of HIF-dependent gene expression.
as §1, with “hours.” for “hours. RNA sequencing identified genes with hypoxia-induced expression (blue circle) and genes that were inhibited by 32-134D (orange circle), based on FDR < 0.05 and fold change > 1.5. (G) Hep3B cells were exposed to 20% or 1% O2 for 24 hours in the presence of vehicle or 5 μM 32-134D, nuclear extracts were prepared, and immunoblot assays were performed.”
Hep3B-c1 cells ([50]) were seeded on 24-well plates. […] FLuc/RLuc ratios were determined using the Dual Luciferase Reporter Assay System (Supplemental Table 6) and the VICTOR Nivo plate reader (PerkinElmer).

[3] = tested on: HIF target genes in Hep3B cells; experiment: RT-qPCR of endogenous HIF target gene expression in Hep3B cells; format: cell-based, human; settings: Hep3B cells, 1% O2, 24 hours
Excerpt: Based on this hit, we synthesized analogs in which either halogen substitutions to the indole groups were altered or the central thiazole was replaced by imidazole, isoxazole, oxadiazole, oxazole, pyrazinone, pyridazine, pyrazine, pyrazole, pyridine, thiadiazole, triazine, or triazole. […] We focused on analyzing the effect of the bis-bromoindole thiazole 32-134D and the bis-indole thiadiazole 33-063 on endogenous HIF target gene expression in Hep3B cells. […] For comparison, we tested the effect of PT2385, which inhibited EPO, NDRG1, ANGPTL4, and VEGFA expression but had no effect on CA9, which is consistent with its HIF-2–selective mechanism of action ([44]). None of the compounds had any effect on RPL13A expression, which is neither induced by hypoxia nor regulated by HIFs (Supplemental Figure 2D).
Human Hep3B and mouse Hepa1-6 cells were purchased from ATCC and grown in high-glucose (4.5 mg/mL) Dulbecco’s modified Eagle’s medium supplemented with 10% (vol/vol) fetal bovine serum and 1% penicillin/streptomycin at 37°C in a 5% CO2/95% air incubator (Supplemental Table 6). Human cell line identity was authenticated by analysis of short tandem repeats, and all cell lines were maintained mycoplasma free, using PCR-based assays conducted at the Johns Hopkins University Genetic Resources Core Facility (JHU GRCF). Cells were subjected to hypoxia in a controlled atmosphere chamber (PLAS Labs) with ambient gas mixture containing 1% O2 and 5% CO2.
(§2) RNA was extracted using TRIzol Reagent. Quantitative real-time PCR was conducted using SYBR Green PCR Master Mix and reactions were run using a Bio-Rad thermal cycler. Primer sequences and reagent sources are listed in Supplemental Table 5. The mRNA expression of target genes was normalized to the expression of 18S rRNA and the fold change (FC) was calculated based on the threshold cycle (Ct) as FC = 2^–Δ(ΔCt), where ΔCt = Cttarget gene – Ct18S rRNA and Δ(ΔCt) = ΔCttreatment – ΔCtcontrol. For RNA-seq, total RNA was isolated and treated with DNase (Qiagen). The JHU GRCF High-Throughput Sequencing facility prepared libraries and performed RNA-seq. The RNA-seq data were processed and interpreted using Genialis Expressions software (https://www.genialis.com/expressions/). An automated data analysis pipeline run in the Genialis platform consisted of the following: Sequence quality checks were performed on raw and trimmed reads with FastQC. Bbduk was used to trim adapters and filter out poor quality reads. Trimmed reads were then mapped to the STAR index (ENSEMBL 100) reference genome using the STAR ([93]) aligner. Gene expression levels were quantified with featureCounts ([94]), and differential gene expression analyses were performed with DESeq2 ([95]). […] Differential expression was determined with an FDR of less than 0.05 and mRNA FC of greater than 1.5 to identify hypoxia-induced genes and genes inhibited by 32-134D. Data used in this study have been deposited in the NCBI Gene Expression Omnibus database (GEO GSE195997).
Supplemental Figure 2. Effect of 32-134D on gene expression in Hep3B cells. (A-D) Hep3B cells were exposed to 20% O2 in the presence of vehicle (first bar; no fill) or 1% O2 in the presence of: vehicle (blue bar) or the indicated concentration of 32-134D (bars with red fill) or 33-063 (bars with green fill), or PT2385 (bars with brown fill) for 24 hours and the indicated mRNAs were quantified by reverse transcription and quantitative real-time PCR (qPCR). Data are presented as mean + SEM (n = 3). *p < 0.05 vs white; **p < 0.01 vs blue (ANOVA with Bonferroni post-test). […]
(G-H) Analysis of HIF-1a (G) and HIF-2a (H) […]
mRNA expression in Hep3B cells exposed to vehicle or 32-134D at 20% or 1% O2 for 24

Hepa1-6 mouse HCC cells = experiment: RT-qPCR of hypoxia-induced gene expression in Hepa1-6 cells; format: cell-based; settings: Hepa1-6, 1% O2, 24 hours
Protocol: Next, we analyzed Hepa1-6, which is a mouse HCC cell line. […] CXCL1, IL-6, and IL-10 were not induced by hypoxia, whereas hypoxia-induced IL-22 expression was inhibited by 32-134D (P < 0.05; Figure 3C).
Figure 3 Effect of 32-134D treatment on hypoxia-induced gene expression in Hepa1-6 cells. (A–C) Cells were exposed to 20% O2 and vehicle (white bars), 1% O2 and vehicle (blue bars), or 1% O2 and 32-134D (red bars) for 24 hours and mRNAs were quantified by RT-qPCR and normalized to white (mean ± SEM, n = 4). *P < 0.05 versus white; ^#P < 0.05 versus blue (ANOVA with Bonferroni’s post hoc test).
as §2
Supplemental Figure 7. Effect of 32-134D on gene expression in Hepa1-6 cells. Cells were exposed to 20% O2 and vehicle (white bar) or 1% O2 and vehicle (blue bar), 2.5-10 […]
for 24 hours and mRNAs were quantified by RT-qPCR and normalized to white (mean + SEM, n = 4). *p < 0.05 vs white; #p < 0.05 vs blue (ANOVA with Bonferroni post-test).
(1 picture or pasted object on this page, not shown here)

[4] = tested on: HIF-1, HIF-2 and p300 recruitment to HREs; experiment: ChIP-qPCR of HRE occupancy in Hep3B cells; format: cell-based, human; settings: 16 hours, 5 µM 32-134D or 10 µM PT2385
Protocol: Coadministration of the proteasome inhibitor MG-132 blocked the effect of 32-134D on HIF-1α protein levels (Figure 1H). […] Taken together, the results presented in Figure 1 and Supplemental Figures 1–3 indicate that 32-134D induces HIF-α subunit degradation, thereby inhibiting activation of HIF-1 and HIF-2 target gene transcription.
Cells were seeded overnight and then exposed to 20% or 1% O2 in the presence of compound or vehicle for 16 hours. Protein was cross-linked to DNA by addition of 37% formaldehyde to culture medium for 10 minutes at 37°C and quenched by addition of 0.1 M glycine. Cells were washed with and collected in 5 mL of cold PBS containing PIs. Cells were pelleted and resuspended in 200 μL of SDS lysis buffer (50 mM Tris-HCl [pH 8.1], 10 mM EDTA, 1% SDS) containing PIs and incubated on ice for 10 minutes. Lysates were sonicated to produce DNA fragments ranging from 200 to 900 bp and centrifuged for 10 minutes at 4°C. Supernatants were collected and diluted 10-fold with dilution buffer (16.7 mM Tris-HCl [pH 8.1], 167 mM NaCl, 1.2 mM EDTA, 0.01% SDS, 1.1% Triton X-100) with PIs, precleared with 20 μL of salmon sperm DNA/protein A agarose slurry, and a 20-μL aliquot was reserved as input control. Antibody (2 μg; see Supplemental Table 6) was added and samples were rotated overnight at 4°C. Immune complexes were precipitated with 50 μL of salmon sperm DNA/protein A agarose slurry. Pelleted beads were washed serially using low-salt wash buffer (20 mM Tris-HCl [pH 8.1], 150 mM NaCl, 2 mM EDTA, 0.1% SDS, 1% Triton X-100); high-salt wash buffer (20 mM Tris-HCl [pH 8.1], 500 mM NaCl, 2 mM EDTA, 0.1% SDS, 1% Triton X-100); LiCl wash buffer (10 mM Tris-HCl [pH 8.1], 0.25 M LiCl, 1% Nonidet P-40, 1% deoxycholate, 1 mM EDTA); and TE buffer (10 mM Tris-HCl [pH 8.1], 1 mM EDTA). Elution buffer (1% SDS, 0.1 M NaHCO3) was added and eluates were heated at 65°C overnight to reverse cross-linking. Eluates were treated with proteinase K for 1 hour at 45°C and DNA was purified by extraction in phenol/chloroform/isoamyl alcohol (25:24:1, v/v/v) and isopropanol precipitation. […]

[5] = cited from earlier work
[6] = von Hippel-Lindau syndrome patients

CC(C)C[C@@H](C=O)NC(=O)[C@H](CC(C)C)NC(=O)[C@H](CC(C)C)NC(=O)OCc1ccccc1 [MG-132, reference compound] (Cbz-Leu-Leu-Leu-aldehyde)
effect of 32-134D on HIF-1α protein levels on coadministration [1]: blocked

c1ccc2c(-c3nsc(-c4c[nH]c5ccccc45)n3)c[nH]c2c1 [Compound 33-063]
IC50 [2]: 2.2 µM
hypoxia-induced ANGPTL4, VEGFA, NDRG1 and EPO mRNA expression [3]: significantly inhibited
hypoxia-induced CA9 mRNA expression (activated by HIF-1 only) [3]: significantly inhibited
RPL13A mRNA expression (Hepa1-6 mouse HCC cells): no effect
hypoxia-induced ANGPTL4, EPO, PGF, and VEGFA mRNA expression (Hepa1-6 mouse HCC cells; 2.5-10 µM): significant dose-dependent inhibition

Brc1ccc2c(-c3nc(-c4c[nH]c5ccc(Br)cc45)cs3)c[nH]c2c1 [Compound 11-88, reference compound]
IC50 [2]: 2.9 µM

CS(=O)(=O)c1ccc(Oc2cc(F)cc(C#N)c2)c2c1[C@H](O)C(F)(F)C2 [PT2385, reference compound]
hypoxia-induced recruitment of HIFs and p300 to EPO and ANGPTL4 HREs [4]: inhibited
hypoxia-induced ANGPTL4, VEGFA, NDRG1 and EPO mRNA expression [3]: inhibited
hypoxia-induced CA9 mRNA expression (activated by HIF-1 only) [3]: no effect
ANGPTL4, PGF, and VEGFA mRNA expression, potency compared with 32-134D and 33-063 (Hepa1-6 mouse HCC cells; 5-10 µM): less potent inhibitor
patients with grade 3 anemia ([5]; phase I trial): 10%

CS(=O)(=O)c1ccc(Oc2cc(F)cc(C#N)c2)c2c1[C@H](O)[C@H](F)[C@@H]2F [belzutifan/PT2977]
patients with decreased blood hemoglobin levels [5, 6]: 90%
patients with grade 3 anemia [5, 6]: 7%
